Consider one molecule from PMC12624743 (ACS Infectious Diseases, 2025).

For assay [1], the target named is T1, WT N. gonorrhoeae gyrase (Neisseria gonorrhoeae, UniProt P48371).
T1 construct: His; made in house
The assay can be described thus: Gyrase-catalyzed DNA supercoiling assay, WT. It counts as biochemical. The settings on record: relaxed pBR322, 1.5 mM ATP, read-out: IC50, inhibition of DNA supercoiling. The protocol:
All proteins were His-tagged. N. gonorrhoeae WT gyrase (GyrA, GyrB) and topoisomerase IV (ParC, ParE) subunits as well as mutant GyrA^D90N, GyrA^A92T, GyrA^S91F, and GyrA^S91F/D95G gyrase and ParC^D86N and ParC^S88P topoisomerase IV were prepared as described previously. , N. gonorrhoeae mutant GyrA^D95G gyrase and mutant ParC^S87N and ParC^E91G topoisomerase IV were generated using a QuickChange II XL site-directed mutagenesis kit (Agilent Technologies) with custom primers for the desired mutations. […] The identities of all constructs were confirmed by DNA sequencing, and all enzymes were stored at −80 °C. In all assays, N. gonorrhoeae gyrase or topoisomerase IV was used as a 1:1 GyrA:GyrB or ParC:ParE mixture, respectively, and the stated enzyme concentration reflects that of the holoenzyme (A2B2).
Samples were mixed with 2 μL of loading dye [60% sucrose, 10 mM Tris–HCl (pH 7.9), 0.5% bromophenol blue, and 0.5% xylene cyanol FF] and incubated at 45 °C for 2 min before being subjected to electrophoresis on 1% agarose gels in 100 mM Tris-borate (pH 8.3) and 2 mM EDTA. […] DNA bands were visualized with medium-range ultraviolet light and quantified using an Alpha Innotech digital imaging system (Protein Simple). DNA supercoiling was monitored by the conversion of relaxed to supercoiled plasmid.

For assay [2], the target named is T2, N. gonorrhoeae topoisomerase IV ParC^D86N (Neisseria gonorrhoeae, UniProt P48374, D86N).
T2 construct: His; made in house
T2 sequence (P48374 1-768 D86N): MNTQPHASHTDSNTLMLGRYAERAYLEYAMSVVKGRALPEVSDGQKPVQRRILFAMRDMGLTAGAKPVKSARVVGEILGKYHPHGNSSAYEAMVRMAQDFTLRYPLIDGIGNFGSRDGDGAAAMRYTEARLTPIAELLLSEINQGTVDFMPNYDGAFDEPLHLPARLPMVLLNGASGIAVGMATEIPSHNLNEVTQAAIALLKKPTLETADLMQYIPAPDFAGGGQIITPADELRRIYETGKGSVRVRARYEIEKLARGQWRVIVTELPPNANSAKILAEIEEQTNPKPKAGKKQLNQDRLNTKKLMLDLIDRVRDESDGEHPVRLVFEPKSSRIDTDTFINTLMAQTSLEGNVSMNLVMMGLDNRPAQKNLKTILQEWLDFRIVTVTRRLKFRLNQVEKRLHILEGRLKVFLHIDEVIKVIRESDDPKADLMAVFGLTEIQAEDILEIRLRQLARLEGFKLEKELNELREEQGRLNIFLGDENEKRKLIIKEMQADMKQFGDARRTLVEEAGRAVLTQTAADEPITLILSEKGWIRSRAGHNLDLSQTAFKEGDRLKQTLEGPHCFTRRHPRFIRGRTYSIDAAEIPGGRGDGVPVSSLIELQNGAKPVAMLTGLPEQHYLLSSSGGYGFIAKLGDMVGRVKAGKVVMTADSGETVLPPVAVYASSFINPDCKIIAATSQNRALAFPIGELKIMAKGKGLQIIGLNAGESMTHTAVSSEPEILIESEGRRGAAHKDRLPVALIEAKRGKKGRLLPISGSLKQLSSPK
The assay can be described thus: Topoisomerase IV-catalyzed DNA decatenation assay, ParC^D86N. The assay is classed as biochemical. The procedure: (§1) All proteins were His-tagged. N. gonorrhoeae WT gyrase (GyrA, GyrB) and topoisomerase IV (ParC, ParE) subunits as well as mutant GyrA^D90N, GyrA^A92T, GyrA^S91F, and GyrA^S91F/D95G gyrase and ParC^D86N and ParC^S88P topoisomerase IV were prepared as described previously. , N. gonorrhoeae mutant GyrA^D95G gyrase and mutant ParC^S87N and ParC^E91G topoisomerase IV were generated using a QuickChange II XL site-directed mutagenesis kit (Agilent Technologies) with custom primers for the desired mutations. Mutant N. gonorrhoeae GyrA and ParC subunits were expressed and purified as described by Ashley et al. with the following modifications to optimize protein expression and lysis: (1) GyrA^D95G was expressed for 2.5 h and ParC^S87N and ParC^E91G were expressed for 3 h before harvesting, and (2) cells were lysed by sonication using a digital sonifier (Branson). The identities of all constructs were confirmed by DNA sequencing, and all enzymes were stored at −80 °C. In all assays, N. gonorrhoeae gyrase or topoisomerase IV was used as a 1:1 GyrA:GyrB or ParC:ParE mixture, respectively, and the stated enzyme concentration reflects that of the holoenzyme (A2B2). […]

Assay [3] relates to N. gonorrhoeae topoisomerase IV ParC^E91G. The assay can be described thus: Topoisomerase IV-catalyzed DNA decatenation assay, ParC^E91G. The assay is classed as biochemical, Neisseria gonorrhoeae. The note with it: ParC E91G vs WT. The protocol: as §1
Assay [4] has as its target T2, N. gonorrhoeae topoisomerase IV ParC^D86N. As to the kind of experiment: DNA cleavage assay, ParC^D86N topoisomerase IV. The assay is classed as biochemical. The procedure: Some experiments replaced MgCl2 with an equivalent concentration of CaCl2 (10 mM), or 1.5 mM ATP was added to assay mixtures.
Reactions were incubated at 37 °C for 30 min with WT and mutant (GyrA^D90N, GyrA^A92T, GyrA^S91F, GyrA^D95G, or GyrA^S91F/D95G) N. gonorrhoeae gyrase, 10 min with WT N. gonorrhoeae topoisomerase IV, and 20 min with mutant (ParC^D86N, ParC^S88P, ParC^S87N, or ParC^E91G) N. gonorrhoeae topoisomerase IV. Enzyme-DNA cleavage complexes were trapped by adding 2 μL of 5% SDS followed by 2 μL of 250 mM EDTA (pH 8.0). Proteinase K was added (2 μL of a 0.8 mg/mL solution), and reaction mixtures were incubated at 45 °C for 30 min to digest the enzyme. Samples were mixed with 2 μL of loading buffer and heated at 45 °C for 2 min prior to electrophoresis in 1% agarose gels in 40 mM Tris-acetate (pH 8.3), and 2 mM EDTA containing 0.5 μg/mL ethidium bromide. DNA bands were visualized by midrange ultraviolet light and quantified using an Alpha Innotech digital imaging system (Protein Simple). Single-stranded DNA cleavage was monitored by the conversion of negatively supercoiled to nicked plasmid molecules.

T1 sequence (P48371 whole entry): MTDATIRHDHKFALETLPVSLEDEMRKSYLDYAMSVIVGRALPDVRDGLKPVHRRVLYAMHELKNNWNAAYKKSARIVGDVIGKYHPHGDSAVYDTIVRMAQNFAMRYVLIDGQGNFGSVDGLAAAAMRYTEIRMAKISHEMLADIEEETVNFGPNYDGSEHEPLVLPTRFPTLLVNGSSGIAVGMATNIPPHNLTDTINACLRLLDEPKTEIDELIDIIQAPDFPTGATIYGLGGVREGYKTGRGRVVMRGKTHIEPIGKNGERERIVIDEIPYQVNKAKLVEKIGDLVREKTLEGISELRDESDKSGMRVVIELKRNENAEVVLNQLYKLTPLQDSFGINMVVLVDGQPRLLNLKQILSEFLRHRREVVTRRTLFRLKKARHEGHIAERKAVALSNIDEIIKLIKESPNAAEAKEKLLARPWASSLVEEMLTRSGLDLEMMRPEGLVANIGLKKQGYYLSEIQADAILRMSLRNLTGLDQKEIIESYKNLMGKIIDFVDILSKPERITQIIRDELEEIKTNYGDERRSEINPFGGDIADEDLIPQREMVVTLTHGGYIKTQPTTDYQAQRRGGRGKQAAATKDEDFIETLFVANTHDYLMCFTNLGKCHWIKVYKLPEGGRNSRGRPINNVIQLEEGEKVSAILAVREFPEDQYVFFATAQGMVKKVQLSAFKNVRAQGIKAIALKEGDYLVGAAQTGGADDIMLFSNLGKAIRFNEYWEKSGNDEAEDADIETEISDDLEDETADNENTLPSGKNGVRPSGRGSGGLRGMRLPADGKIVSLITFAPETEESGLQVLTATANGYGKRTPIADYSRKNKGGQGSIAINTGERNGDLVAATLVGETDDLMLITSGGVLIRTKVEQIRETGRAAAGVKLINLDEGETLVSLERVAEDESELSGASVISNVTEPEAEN
T1 sequence (P22118 whole entry partner): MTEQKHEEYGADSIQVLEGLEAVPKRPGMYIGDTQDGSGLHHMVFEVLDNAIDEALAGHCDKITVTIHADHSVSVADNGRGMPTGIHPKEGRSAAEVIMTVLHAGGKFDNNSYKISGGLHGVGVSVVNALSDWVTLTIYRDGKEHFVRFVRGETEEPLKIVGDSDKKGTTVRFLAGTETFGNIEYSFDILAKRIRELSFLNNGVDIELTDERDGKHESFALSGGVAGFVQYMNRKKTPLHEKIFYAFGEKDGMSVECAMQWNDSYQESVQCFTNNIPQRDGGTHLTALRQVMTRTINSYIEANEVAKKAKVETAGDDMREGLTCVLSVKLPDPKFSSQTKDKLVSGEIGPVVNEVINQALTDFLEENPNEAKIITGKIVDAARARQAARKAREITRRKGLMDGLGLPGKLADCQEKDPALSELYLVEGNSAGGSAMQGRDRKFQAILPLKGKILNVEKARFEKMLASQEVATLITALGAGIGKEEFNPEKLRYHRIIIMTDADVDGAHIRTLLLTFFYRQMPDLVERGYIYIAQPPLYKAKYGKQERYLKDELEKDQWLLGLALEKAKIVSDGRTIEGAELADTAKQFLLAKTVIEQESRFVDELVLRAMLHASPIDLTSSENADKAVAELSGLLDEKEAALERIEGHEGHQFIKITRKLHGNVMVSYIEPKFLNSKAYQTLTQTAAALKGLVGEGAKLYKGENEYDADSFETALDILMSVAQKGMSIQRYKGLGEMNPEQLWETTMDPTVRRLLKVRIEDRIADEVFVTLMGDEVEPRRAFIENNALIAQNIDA

Turning to `O=c1ccc2ncc(=O)n3c2n1C[C@H]3CN1CCC(NCc2cc3c(cn2)OCCC3)CC1` [gepotidacin], the IC50 in assay [1] was 5.1 ± 2.3 µM; in assay [2] (ParC D86N topoisomerase IV, read-out: IC50, inhibition of DNA decatenation) it was greater than 200 µM. In assay [2] (ParC D86N, gepotidacin concentrations as high as 200 μM), the “inhibition of DNA decatenation” value is listed as “no inhibition”. The “fold lower decatenation IC50 vs WT topoisomerase IV” value in assay [3] is given as roughly 1.2 fold. Also, the “Adj-Max Cleavage, single-stranded DNA breaks” value in assay [4] amounted to 9.3%. In assay [4] (ParC D86N topoisomerase IV, read-out: CC50, single-stranded DNA cleavage), the EC50 was greater than 50 µM.

The term IC50 denotes the concentration that inhibits the measured activity by half.
